Earlier results on one compound are cited in patent US20130252334A1, “METHOD OF USING TET-INDUCIBLE TRANSGENES” (UNIVERSITY OF ROCHESTER, priority 2010, published 2013).

One data set deals with tet repressor (Escherichia coli, UniProt P04483). To be noted: relative to tetracycline; Zhu et al. 2007; cited from earlier work.
For a further data set, the system named is rtTA. As to conditions: compared to Dox; Zhu et al. 2007; cited from earlier work.
The conditions of data set [1]: versus other related compounds; cited from earlier work.

tet repressor, sequence (P04483 whole entry): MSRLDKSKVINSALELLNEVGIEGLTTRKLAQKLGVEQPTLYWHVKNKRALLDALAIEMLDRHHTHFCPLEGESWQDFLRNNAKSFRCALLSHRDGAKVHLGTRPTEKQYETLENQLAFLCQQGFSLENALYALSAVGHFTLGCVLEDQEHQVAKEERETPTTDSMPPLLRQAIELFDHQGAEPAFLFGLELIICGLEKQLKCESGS

With `C[C@H]1c2ccc(C(C)(C)C)c(O)c2C(O)=C2C(=O)[C@]3(O)C(O)=C(C(N)=O)C(=O)[C@@H](N(C)C)[C@@H]3[C@@H](O)[C@@H]21` [9-TB, 9-t-butyl doxycycline], on tet repressor, the “binding affinity on the tet repressor, fold higher” value is on record as 10 fold. Besides, the “potency in activating transcription from the rtTA” value in the data set with rtTA was 10 times. For the same compound, the hydrophobicity/lipophilicity entry in data set [1] is reported as “much more hydrophobic/lipophylic than other related compounds”.
